Test results taken from paper PMC3608651, “A Broad Profile of Co-Dominant Epitopes Shapes the Peripheral Mycobacterium tuberculosis Specific CD8+ T-Cell Immune Response in South African Patients with Active Tuberculosis” (PLoS ONE, 2013).
Where two headings read alike, the source gives them in different places.

Assays:
Format in all cases: binding
[1] = molecular target: T1, HLA-A*30:02 (Homo sapiens, UniProt P04439, D101N/D140H/D185E/E176R/F33S/G80R/H175R/K168Q/Q94H/R138E/R41S/V100E)
[2] = molecular target: HLA-A*02:01 (Homo sapiens, UniProt P04439, D140Y/D185E/D98H/E176V/E277Q/G131W/G231S/I119V/I121R/I166T/I218V/L300P/L318F/N151K/N90K/P208A/P217A/Q86G/Q94H/R138H/R169H/T345S); conditions: plate-bound monomer 0.5 µg/ml, duplicated experiments, positive binder >40%
[3] = molecular target: T1, HLA-A*30:02; conditions: time points 0-8 h
[4] = molecular target: HLA-B*07:02 (Homo sapiens, UniProt P01889); conditions: percent relative the binding of positive control peptide […]; duplicated experiments; positive binder >40%
[5] = molecular target: T1, HLA-A*30:02; conditions: duplicated experiments, positive binder >40%
[6] = molecular target: HLA-A*30:01 (Homo sapiens, UniProt P04439, D140H/D185E/E176W/F33S/G80R/H175R/K168Q/R138E/R41S); conditions: duplicated experiments, positive binder >40%
[7] = molecular target: HLA-A*24:02 (Homo sapiens, UniProt P04439, D101N/D140Y/D185E/E176V/E190D/F33S/G103R/G107R/I119L/I121M/I306V/K335N/L105A/L180Q/L300P/N151K/N90K/Q86E/Q94H/R106L/R138H/R89G/T104I/T345S/V100E/W191G/Y123F); conditions: duplicated experiments, positive binder >40%
[8] = molecular target: HLA-A*68:01 (Homo sapiens, UniProt P04439, A269V/D185E/E176V/E277Q/E87N/F33Y/G231S/I121M/I166T/I218V/L180W/L300P/L318F/N151K/P208A/P217A/Q86R/R169H/T345S); conditions: duplicated experiments, positive binder >40%
[9] = molecular target: HLA-B*58:01 (Homo sapiens, UniProt P01889, A329T/C349S/D201E/D98Y/E176V/E187L/E204Q/E69T/G107R/I218V/I90N/K202T/L105A/L119I/N104I/N87E/Q89R/Q94S/R106L/R155S/R180L/R86G/S101N/S121R/S35A/S48A/T118I/V127L/V306I/V36M/Y140S/Y91M); conditions: duplicated experiments, positive binder >40%
[10] = molecular target: HLA-C*07:01 (Homo sapiens, UniProt P10321, K90N/S123Y); conditions: duplicated experiments, positive binder >40%
[11] = percent relative the binding of positive control peptide […]
[12] = peptide titrated 10−4 to 10−9 M
[13] = percent relative the binding of positive control peptide FLPSDFFPSV
[14] = percent relative the binding of positive control peptide KIQNFRVYY
[15] = percent relative the binding of positive control peptide KTKDIVNGL
[16] = percent relative the binding of positive control peptide RYLKDQQLL
[17] = percent relative the binding of positive control peptide KTGGPIYKR
[18] = percent relative the binding of positive control peptide IAMESIVIW
[19] = percent relative the binding of positive control peptide KYFDEHYEY

Substance: LVANNT RLW
- Aff A*30:02 (ED50) [1]: 5e-07 M
- Bind A*02:01 [2, 11]: 21%
- O-rate A*30:02 (t1/2) [3]: 0.5 h
- Bind B*07:02 [4]: 50%
- Bind A*30:02 [5, 11]: 68%
- Bind A*30:01 [6, 11]: 2%
- Bind A*24:02 [7, 11]: 88%
- Bind A*68:01 [8, 11]: 38%
- Bind B*58:01 [9, 11]: 50%
- Bind C*07:01 [10, 11]: 26%

Substance: RTISEAGQA [Rv3875_74–82]
- Aff A*30:02 (ED50) [1, 12]: 3e-08 M
- Bind A*02:01 [2, 13]: 18%
- O-rate A*30:02 (t1/2) [3]: 2 h
- Bind B*07:02 [4]: 11%
- Bind A*30:02 [5, 14]: 98%
- Bind A*30:01 [6, 15]: 19%
- Bind A*24:02 [7, 16]: 0%
- Bind A*68:01 [8, 17]: 4%
- Bind B*58:01 [9, 18]: 34%
- Bind C*07:01 [10, 19]: 8%

Substance: KAADMW GPS
- Aff A*30:02 (ED50) [1]: 7E -09 M
- Bind A*02:01 [2, 11]: 33%
- O-rate A*30:02 (t1/2) [3]: 0.8 h
- Bind B*07:02 [4]: 18%
- Bind A*30:02 [5, 11]: 103%
- Bind A*30:01 [6, 11]: 1%
- Bind A*24:02 [7, 11]: 4%
- Bind A*68:01 [8, 11]: 17%
- Bind B*58:01 [9, 11]: 21%
- Bind C*07:01 [10, 11]: 34%

Substance: VFNFPPNGT
- Aff A*30:02 (ED50) [1]: 3e-05 M
- Bind A*02:01 [2, 11]: 34%
- O-rate A*30:02 (t1/2) [3]: 1.2 h
- Bind B*07:02 [4]: 0%
- Bind A*30:02 [5, 11]: 113%
- Bind A*30:01 [6, 11]: 3%
- Bind A*24:02 [7, 11]: 25%
- Bind A*68:01 [8, 11]: 3%
- Bind B*58:01 [9, 11]: 33%
- Bind C*07:01 [10, 11]: 0%

Substance: SAIQGNVTS [Rv3875_16–24]
- Aff A*30:02 (ED50) [1, 12]: 3e-08 M
- Bind A*02:01 [2, 13]: 1%
- O-rate A*30:02 (t1/2) [3]: 0.9 h
- Bind B*07:02 [4]: 4%
- Bind A*30:02 [5, 14]: 67%
- Bind A*30:01 [6, 15]: 11%
- Bind A*24:02 [7, 16]: 15%
- Bind A*68:01 [8, 17]: 29%
- Bind B*58:01 [9, 18]: 12%
- Bind C*07:01 [10, 19]: 12%

Substance: PAVYLLDGL
- Aff A*30:02 (ED50) [1]: 9E -08 M
- Bind A*02:01 [2, 11]: 9%
- O-rate A*30:02 (t1/2) [3]: 1 h
- Bind B*07:02 [4]: 63%
- Bind A*30:02 [5, 11]: 120%
- Bind A*30:01 [6, 11]: 0%
- Bind A*24:02 [7, 11]: 38%
- Bind A*68:01 [8, 11]: 2%
- Bind B*58:01 [9, 11]: 0%
- Bind C*07:01 [10, 11]: 17%

Substance: SAMILAAYH
- Aff A*30:02 (ED50) [1]: 4e-08 M
- Bind A*02:01 [2, 11]: 9%
- O-rate A*30:02 (t1/2) [3]: 2.2 h
- Bind B*07:02 [4]: 7%
- Bind A*30:02 [5, 11]: 111%
- Bind A*30:01 [6, 11]: 0%
- Bind A*24:02 [7, 11]: 0%
- Bind A*68:01 [8, 11]: 69%
- Bind B*58:01 [9, 11]: 0%
- Bind C*07:01 [10, 11]: 15%

Substance: SNLKFQDAY
- Aff A*30:02 (ED50) [1]: 2e-07 M
- Bind A*02:01 [2, 11]: 11%
- O-rate A*30:02 (t1/2) [3]: 1.6 h
- Bind B*07:02 [4]: 0%
- Bind A*30:02 [5, 11]: 124%
- Bind A*30:01 [6, 11]: 0%
- Bind A*24:02 [7, 11]: 23%
- Bind A*68:01 [8, 11]: 18%
- Bind B*58:01 [9, 11]: 14%
- Bind C*07:01 [10, 11]: 52%
